Experimental data taken from patent US20240382475A1, “Quinazoline Derivative, Or Preparation Method Therefor And Use Thereof” (Zhejiang Hisun Pharmaceutical Co., Ltd., priority 2021, published 2024).
Blank lines part the entries; values can stand above or below the compound they belong to.

What was measured:
NCI-H358 cells = test: Inhibition of NCI-H358 cell proliferation under 3D non-anchored conditions (CellTiter-Glo 3D); assay type: cell-based; details: Homo sapiens, NCI-H358 cells (KRAS G12C mutation), 120 hours
Protocol: The following method was used to determine the effects of the compounds of the present invention on NCI-H358 cell proliferation under three-dimensional (3D) non-anchored conditions. NCI-H358 cells (containing KRAS G12C mutation) were purchased from the Cell Resource Center of Shanghai Institutes for Biological Sciences, Chinese Academy of Sciences, and cultured in RPMI 1640 medium containing 10% fetal bovine serum, 100 U penicillin, 100 μg/mL streptomycin and 1 mM Sodium Pyruvate. The activities of the cells were determined by CellTiter-Glo® 3D Cell Viability Assay Kit (Promega, Art. No. G9683).
The experimental method was operated according to the steps in the kit instruction, which can be briefly described as follows: the test compounds were first dissolved in DMSO to prepare storage solutions of 10 mM, and then diluted with culture mediums to prepare test samples. The final concentrations of the compounds were 10000 nM to 0.15 nM. Cells in logarithmic phase were inoculated in an ultra-low adsorption 384-well cell culture plate (PerkinElmer, #3830) with 2000 cells per well, and the test compounds were added and cultured for 120 hours. After the culture was completed, 30 μL of CellTiter-Glo 3D detection solution was added to each well, shaken for 30 minutes and then stood for 120 minutes. Then, a Luminescence mode was used to read the luminescence values of each well of the samples on a microplate reader. By comparing with the numerical value of a control group (0.1% DMSO), the percentage inhibition rates of the compounds at each concentration were calculated, and the IC50 values of the compounds inhibiting cell proliferation were obtained by performing nonlinear regression analysis with logarithmic values of the compound concentration-inhibition rate by GraphPad Prism 5 software, which can be seen in Table 4.

OCI-AML5 cells = test: Inhibition of OCI-AML5 cell proliferation (CellTiter-Glo); assay type: cell-based; details: Homo sapiens, OCI-AML-5; OCI-AML5 cells (SOS1 N233Y mutation), 120 hours
Protocol: The following method was used to determine the influence of the compounds of the present invention on OCI-AML5 cells proliferation. OCI-AML5 cells (containing SOS1 N233Y mutation) were purchased from Nanjing Kebai Biotechnology Co., Ltd. and cultured in MEMα medium containing 10% fetal bovine serum, 100 U penicillin, and 100 μg/mL streptomycin. The activities of the cells were determined by CellTiter-Glo® Luminescent Cell Viability Assay Kit (Promega, Art. No. G7573).
The experimental method was operated according to the steps in the kit instruction, which were briefly described as follows: the test compounds were first dissolved in DMSO to prepare storage solutions of 10 mM, and then diluted with culture mediums to prepare test samples. The final concentrations of the compounds were 10000 nM to 0.15 nM. Cells in logarithmic phase were inoculated in a 96-well cell culture plate with 1,000 cells per well, after cultured overnight in 5% CO2 incubator at 37° C., the test compounds were added to the incubator to continue the culture for 120 hours. After the culture was completed, 50 μL of CellTiter-Glo detection solution was added to each well, shaken for 5 minutes and then stood for 10 minutes. Then, a Luminescence mode was used to read the luminescence values of each well of the samples on a microplate reader.

p-ERK1/2 in DLD-1 cells = test: Inhibition of p-ERK1/2 in DLD-1 cells (Cisbio Advanced phospho-ERK1/2 kit); assay type: cell-based; details: Homo sapiens; DLD-1 cells (KRAS G13D mutation), hEGF 5 nM stimulation; read-out: IC50 (nM) Inhibition on p-ERK½ in DLD-1 cells
Source text: The following method was used to determine the inhibition activities of the compounds of the present invention on p-ERK1/2 in DLD-1 cells. The Advanced phospho-ERK1/2 (Thr202/tyr2O4) kit (Art. No. 64AERPEH) from Cisbio was used in this method. Please refer to the kit instruction for detailed experimental operations. DLD-1 cells (containing KRAS G13D mutation) were purchased from the Cell Resource Center of Shanghai Institutes for Biological Sciences, Chinese Academy of Sciences.
The experimental process can be briefly described as follows: DLD-1 cells were cultured in RPMI 1640 complete medium containing 10% fetal bovine serum, 100 U penicillin, 100 μg/mL streptomycin and 1 mM Sodium Pyruvate. DLD-1 cells were plated in a 96-well plate at 30,000 cells per well, after cultured overnight in 5% CO2 incubator at 37° C. with complete culture medium. The test compounds were dissolved in DMSO to prepare storage solutions of 10 mM, and then diluted with RPMI 1640 basic mediums. 90 μL of RPMI 1640 basic mediums containing the test compounds at the corresponding concentration were added to each well. The final concentrations of the test compounds in the reaction system were 10,000 nM to 0.15 nM, and were placed in a cell culture incubator for 3 hours and 40 minutes. Subsequently, 10 μL of hEGF (purchased from Roche, Art. No. 11376454001) prepared with RPMI 1640 basic medium was added to a final concentration of 5 nM, and placed in the incubator for culturing for 20 minutes. The cell supernatant was discarded, and the cells were washed with PBS on ice-bath. Then, 45 μl of 1× cell phospho/total protein lysis buffer (component of Advanced phospho-ERK1/2 kit) was added to each well for lysis. The 96-well plate was placed on ice for 0.5 hours to lyse, and then the lysate was detected according to the instruction of the Advanced phospho-ERK1/2 (Thr202/tyr2O4) kit. Finally, the microplate reader was used in […] mode to measure the fluorescence intensity of each well emitting wavelengths of 620 nm and […] under the excitation wavelength of 304 nm, and the fluorescence intensity ratio 665/620 in each well was calculated. By comparing with the fluorescence intensity ratio of a control group (0.1% DMSO), the percentage inhibition rates of the test compounds at each concentration were calculated, and the IC50 values of the compounds were obtained by performing nonlinear regression analysis with logarithmic values of the compound concentration-inhibition rate by GraphPad Prism 5 software, which can be seen in Table 3.

[1] = Pharmacokinetic evaluation in ICR mice; assay type: in vivo; details: male, mouse, plasma, PO 10 mg/kg; for AUC(0-t): read-out: Area under curve AUC0-t; for half-life: read-out: Half-life T1/2 (converted); for Cmax: read-out: Plasma concentration Cmax
Source text: (§1) ICR normal mice were used as test animals, and LC/MS/MS was used to determine the drug concentrations at different moments in plasma of ICR mice by intragastric administration. The pharmacokinetic behavior of the compounds of the present invention in ICR mice was studied to evaluate the pharmacokinetic characteristics of the above compounds.
Compound 4, Compound 26 and Compound 32.
ICR mice, male, 27.8-38 g, were purchased from Zhejiang Vital River Laboratory Animal Technology Co., Ltd.
An appropriate amount of the compound was weighed, and DMA:30% Solutol HS-15:Saline=5:5:90 (v/v/v) was used as the solvent to prepare a fully dissolved solution, and then administered to obtain a 1 mg/mL colorless solution.
The ICR mice in the intragastric group of each compound to be tested (nine mice in each group) were fasted overnight followed by intragastric administration (administration dosage was 10 mg/kg and the administration volume was 10 mL/kg), and ate 4 hours after administration.
0.1 mL of blood was collected via orbit before administration and 0.25 hour, 0.5 hour, 1 hour, 2 hours, 4 hours, 8 hours, 12 hours, and 24 hours after administration, and placed in EDTA-K2 anticoagulant tubes. The collected blood samples were placed on ice, and plasma was separated by centrifugation (centrifugation condition: 1500 g, 10 minutes). The collected plasma samples were stored at −40˜−20° C. before analysis.
(§2) LC-MS/MS was used to determine the content of the compound to be tested in mouse plasma after intragastric administration.

[2] = Pharmacokinetic evaluation in Balb/c mice; assay type: in vivo; details: male, mouse, plasma, PO 10 mg/kg; for AUC(0-t): read-out: Area under curve AUC0-t; for half-life: read-out: Half-life T1/2 (converted); for Cmax: read-out: Plasma concentration Cmax
Source text: as §1, with “Balb/c normal” for “ICR normal”, “of balb/c” for “of ICR”, “in Balb/c” for “in ICR”
Compound 27 and Compound 30.
Nine Balb/c normal mice, male, were evenly divided into 3 groups, with 3 mice in each group, purchased from Zhejiang Vital River Laboratory Animal Technology Co., Ltd.
An appropriate amount of the compound was weighed, and DMA:30% Solutol HS-15:Saline=5:5:90 (v/v/v) was used as the solvent to prepare a fully dissolved solution with a concentration of 1 mg/mL.
The mice in the intragastric group of each compound to be tested (nine mice in each group) were fasted overnight followed by intragastric administration (administration dosage was 10 mg/kg and the administration volume was 10 mL/kg), and ate 4 hours after administration.
0.1 mL of blood was collected via jugular vein before administration and 0.25 hour, 0.5 hour, 1 hour, 2 hours, 4 hours, 6 hours, 8 hours, and 24 hours after administration, and placed in 0.1% sodium heparin anticoagulant test tubes. The collected blood samples were placed on ice, and plasma was separated by centrifugation (centrifugation condition: 7000 g, 5 minutes). The collected plasma samples were stored at −80° C. before analysis.
as §2

IC50 (NCI-H358 cells): 6.9 nM | IC50 (OCI-AML5 cells): 2.6 nM
SMILES: COc1cc2nc(C)nc(N[C@H](C)c3cccc(C#N)c3C)c2cc1N1CCC2(CCN(C(C)=O)CC2)CC1 [Compound 18, (R)-3-(1-((6-(9-acetyl-3,9-diazaspiro[5.5]undecan-3-yl)-7-methoxy-2-methylquinazolin-4-yl)amino)ethyl)-2-methylbenzonitrile]

AUC(0-t) [2]: 4660 ng·h/mL | half-life [2]: 4.91 h | Cmax [2]: 1150 ng/mL | IC50 (p-ERK1/2 in DLD-1 cells): 31.2 nM
SMILES: COc1cc2nc(C)nc(N[C@H](C)c3cccc(C#N)c3C)c2cc1N1CCC(N2CCN(C(C)=O)CC2)CC1 [Compound 27, (R)-3-(1-((6-(4-(4-acetylpiperazin-1-yl)piperidin-1-yl)-7-methoxy-2-methylquinazolin-4-yl)amino)ethyl)-2-methylbenzonitrile]

AUC(0-t) [2]: 10800 ng·h/mL | half-life [2]: 0.79 h | Cmax [2]: 4660 ng/mL
SMILES: CCOC(=O)N1CCN(c2cc3c(N[C@H](C)c4cccc(C#N)c4C)nc(C)nc3cc2OC)CC1 [Compound 30, ethyl (R)-4-(4-((1-(3-cyano-2-methylphenyl)ethyl)amino)-7-methoxy-2-methylquinazolin-6-yl)piperazine-1-carboxylate]

AUC(0-t) [1]: 22100 ng·h/mL | half-life [1]: 2.29 h | Cmax [1]: 5610 ng/mL
SMILES: COc1cc2nc(C)nc(N[C@H](C)c3cccc(C#N)c3C)c2cc1C1(OC)CCN(C(C)=O)CC1 [Compound 32, (R)-3-(1-((6-(1-acetyl-4-methoxypiperidin-4-yl)-7-methoxy-2-methylquinazolin-4-yl)amino)ethyl)-2-methylbenzonitrile]

More lines, now with the values behind:

SMILES: COc1cc2nc(C)nc(N[C@H](C)c3cccc(C#N)c3C)c2cc1N1CCN(CCO)CC1 [Compound 20, (R)-3-(1-((6-(4-(2-hydroxyethyl)piperazin-1-yl)-7-methoxy-2-methylquinazolin-4-yl)amino)ethyl)-2-methylbenzonitrile]
IC50 (NCI-H358 cells): 52.4 nM

SMILES: COc1cc2nc(C)nc(N[C@H](C)c3cccc(C#N)c3C)c2cc1N1CCC(C(=O)N(C)C)CC1 [Compound 22, (R)-1-(4-((1-(3-cyano-2-methylphenyl)ethyl)amino)-7-methoxy-2-methylquinazolin-6-yl)-N, N-dimethylpiperidine-4-carboxamide]
IC50 (NCI-H358 cells): 15.1 nM | IC50 (OCI-AML5 cells): 7.2 nM | IC50 (p-ERK1/2 in DLD-1 cells): 20.9 nM

SMILES: CC(=O)c1cc2nc(C)nc(N[C@H](C)c3cccc(C#N)c3C)c2cc1N1CCC2(CC1)COC2 [Compound 26, (R)-3-(1-((7-acetyl-2-methyl-6-(2-oxa-7-azaspiro[3.5]nonan-7-yl)quinazolin-4-yl)amino)ethyl)-2-methylbenzonitrile]
IC50 (OCI-AML5 cells): 17.4 nM | AUC(0-t) [1]: 7700 ng·h/mL | half-life [1]: 1.98 h | Cmax [1]: 2830 ng/mL
